22 compounds from patent publication US20030176390A1, “Methods of treating insulin resistance syndrome and diabetes” (priority 2001, published 2003) can be followed below.

One data set has as its system rat adipocytes. The data set is described as follows: In vitro lipolysis assay (antilipolytic activity in rat adipocytes). It is filed as cell-based. Conditions: norepinephrine-stimulated lipolysis, glycerol assayed, 60 min, read-out: Lipo ec50. How it is done: Determination of Antilipolytic Activity in Rat Adipocytes
Isolation of Adipocytes from Epididymal Fat Pads
Adipose tissue is removed from anesthetized rats and rinsed twice in incubation medium (2.09 g sodium bicarbonate and 0.04 g EDTA, disodium salt, in 1 L Krebs buffer). Each rat (300-350 g) yields approximately 4 mL of adipose tissue. The adipose tissue (35 mL) is cut into small pieces with scissors and washed with incubation medium (50 mL). The mixture is poured into the barrel of a 50 mL syringe to which is attached a short piece of clamped tubing instead of a needle. The aqueous phase is allowed to drain. A second wash with incubation medium is passed through the syringe. The tissue is added to 50 mL of collagenase solution (collagenase (90 mg), bovine serum albumin (BSA) (500 mg), and 0.1 M calcium chloride solution (1 mL), in incubation medium (50 mL)) in a 1 L bottle. The mixture is shaken in an environmental at 37° C. for about 60 minutes under an atmosphere of 95% oxygen/5% carbon dioxide to effect digestion of the tissue. The dispersed cells are poured through 2 layers of cheese cloth into a 100 mL plastic beaker. The undigested clumps in the cloth are rinsed once with incubation medium (20 mL). The cells in the beaker are centrifuged in 2 plastic tubes for 30 seconds at room temperature at 300 rpm. The aqueous phase is aspirated from beneath the loosely packed layer of floating fat cells and discarded. The adipocytes are gently poured into a 250 mL plastic beaker containing 100 mL of rinse solution (1 g BSA per 100 mL incubation medium). After gentle stirring the centrifugation step is repeated. Another wash with rinse solution follows. The cells are pooled and their volume is estimated with a graduated cylinder. The adipocytes are diluted in twice their volume of assay buffer (incubation medium (120 mL), BSA (1.2 g), pyruvic acid (13 mg)).
The assay is performed in 20 mL plastic scintillation vials and the total assay volume is 4.2 mL. Assay buffer (2.5 mL), diluted adipocytes (1.5 mL), and a solution of the compound to be tested (12.3 μL) adenosine agonist (12.3 μl; varying concentration) is incubated in the environmental shaker for 15 minutes, then the reaction is started with norepinephrine solution (41.2 μL) (10 nM, in a carrier solution containing water (100 mL), BSA (4 mg), and 0.1 M EDTA (20 μL))and adenosine deaminase (1 μg/mL, 41.2 μl). After sixty minutes in the shaker the reaction is terminated by putting the vials on ice. […] The hard lipid layer is removed by aspiration and the aqueous layer is assayed for glycerol (400 μl of sample). The positive control is done in the absence of any adenosine agonist, substituting water in place of the solution to be tested.

[1] abbreviates: Rattus norvegicus, Adipocyte, 1 h.

Like-named read-outs stand apart in the source and are kept apart here.

Take `COC[C@H]1C[C@@H](n2cnc3c(N[C@H]4CCN(c5cc(Cl)ncn5)C4)ncnc32)[C@H](O)[C@@H]1O` [Example 46, (1R,2S,3R,5R)-3-[6-[1-(6-chloropyrimidin-4-yl)pyrrolidin-3(S)-ylamino]-purin-9-yl]-5-methoxymethylcyclopentane-1,2-diol]: the EC50 (commonly the concentration that produces a half-maximal response) in the data set with rat adipocytes (setting [1]) turned out to be 92.5 nM.
`O=C1C[C@H](Nc2ncnc3c2ncn3[C@@H]2C[C@H](CO)[C@@H](O)[C@H]2O)CN1Cc1ccccc1` [Example 6, 4(S)-1-benzyl-4-[9-((1R,2S,3R,5R)-1,2-dihydroxy-5-hydroxymethylcyclopent-3-yl)-9H-purin-6-ylamino]pyrrolidin-2-one]: the EC50 in the data set with rat adipocytes stood at 267 nM.
With `OC[C@H]1C[C@@H](n2cnc3c(N[C@H]4CCN(c5ccccc5)C4)ncnc32)[C@H](O)[C@@H]1O` [Example 39, (1R,2S,3R,5R)-5-hydroxymethyl-3-[6-[1-(phenyl)-pyrrolidin-3(S)-ylamino]-purin-9-yl]cyclopentane-1,2-diol], the melting point (in general, the temperature, or range, at which the solid turns liquid) was in the range of 97 to 99 °C. Besides, in the data set with rat adipocytes (setting [1]), the EC50 is 17.6 nM.
Compound `OC[C@H]1C[C@@H](n2cnc3c(N[C@H]4CCN(c5ccc(Cl)cn5)C4)ncnc32)[C@H](O)[C@@H]1O` [Example 33, (1R,2S,3R,5R)-3-[6-[1-(5-chloropyridin-2-yl)pyrrolidin-3(S)-ylamino]-purin-9-yl]-5-hydroxymethylcyclopentane-1,2-diol] registered a melting point of 118 to 121 °C. For the same compound, the EC50 in the data set on rat adipocytes (setting [1]) turned out to be 4.2 nM.
`OC[C@H]1O[C@@H](n2cnc3c(N[C@H]4CCN(c5ccc(-c6cccs6)cn5)C4)ncnc32)[C@H](O)[C@@H]1O` [Example 18, (2R,3R,4S,5R)-5-hydroxymethyl-2-[6-[1-(5-thiophen-2-ylpyridin-2-yl)-pyrrolidin-3(S)-ylamino]-purin-9-yl]tetrahydrofuran-3,4-diol]: the EC50 in the data set on rat adipocytes (setting [1]) was found to be 2.24 nM.
`OC[C@H]1C[C@@H](n2cnc3c(N[C@H]4CCN(c5cccc(Cl)c5)C4)ncnc32)[C@H](O)[C@@H]1O` [Example 57, (1R,2S,3R,5R)-3-[6-[1-(3-chlorophenyl)-pyrrolidin-3(S)-ylamino]-purin-9-yl]-5-hydroxymethylcyclopentane-1,2-diol] displayed a melting point of 131 to 133 °C. For the same compound, in the data set on rat adipocytes (setting [1]), the EC50 was determined as 63.5 nM.
As to `COC[C@H]1C[C@@H](n2cnc3c(N[C@H]4CCN(c5cccc(Cl)c5)C4)ncnc32)[C@H](O)[C@@H]1O` [Example 56, (1R,2S,3R,5R)-3-[6-[1-(3-chlorophenyl)-pyrrolidin-3(S)-ylamino]-purin-9-yl]-5-methoxymethylcyclopentane-1,2-diol], the melting point is 127 to 130 °C. Also, the concentration giving a half-maximal response (EC50) with rat adipocytes (setting [1]) was 2.4 nM.
Regarding `OC[C@H]1C[C@@H](n2cnc3c(N[C@H]4CCN(c5ccc(Br)cn5)C4)ncnc32)[C@H](O)[C@@H]1O` [Example 32, (1R,2S,3R,5R)-3-[6-[1-(5-bromopyridin-2-yl)pyrrolidin-3(S)-ylamino]-purin-9-yl]-5-hydroxymethylcyclopentane-1,2-diol], the melting point lay within 169 to 171 °C. The EC50 with rat adipocytes (setting [1]) was found to be 8 nM.
As for `O=[N+]([O-])c1ccc(N2CCC(Nc3ncnc4c3ncn4[C@@H]3C[C@H](CO)[C@@H](O)[C@H]3O)C2)cc1` (stereo partly drawn) [Example 7, (1R,2S,3R,5R)-5-hydroxymethyl-3-[6-[1-(4-nitrophenyl)pyrrolidin-3-ylamino]-purin-9-yl]cyclopentane-1,2-diol], the EC50 in the data set on rat adipocytes (setting [1]) was 2.82 nM.
`OC[C@H]1C[C@@H](n2cnc3c(N[C@H]4CCN(c5ccc(C(F)(F)F)cn5)C4)ncnc32)[C@H](O)[C@@H]1O` [Example 29, (1R,2S,3R,5R)-5-hydroxymethyl-3-[6-[1-(5-trifluoromethylpyridin-2-yl)pyrrolidin-3(S)-ylamino]-purin-9-yl]cyclopentane-1,2-diol] came in with a melting point of 110 to 111 °C. The EC50 with rat adipocytes (setting [1]) was determined as 3.57 nM.
With `COc1cc(N2CC[C@H](Nc3ncnc4c3ncn4[C@@H]3O[C@H](CO)[C@@H](O)[C@H]3O)C2)ncn1` [Example 20, (2R,3R,4S,5R)-5-hydroxymethyl-2-[6-[1-(6-methoxypyrimidin-4-yl)pyrrolidin-3(S)-ylamino]-purin-9-yl]tetrahydrofuran-3,4-diol], the melting point is 251 to 253 °C. In addition, in the data set with rat adipocytes (setting [1]), the EC50 amounted to 1.37 nM.
Turning to `CC(C)NC(=O)[C@H]1C[C@@H](n2cnc3c(N[C@H]4CCN(c5cc(C(F)(F)F)ccn5)C4)ncnc32)[C@H](O)[C@@H]1O` [Example 2, (1S,2R,3S,4R)-2,3-dihydroxy-4-[6-[1-(4-trifluormethylpyridin-2-yl)pyrrolidin-3(S)-ylamino]purin-9-yl]cyclopentanecarboxylic acid isopropylamide], the concentration for a half-maximal effect (EC50) in the data set with rat adipocytes was 10.9 nM.
As to `OC[C@H]1C[C@@H](n2cnc3c(N[C@H]4CCN(c5cc(C(F)(F)F)ccn5)C4)ncnc32)[C@H](O)[C@@H]1O` [Example 34, (1R,2S,3R,5R)-5-hydroxymethyl-3-[6-[1-(4-trifluoromethylpyridin-2-yl)pyrrolidin-3(S)-ylamino]-purin-9-yl]cyclopentane-1,2-diol], the melting point was in the range of 135 to 137 °C. In addition, the EC50 in the data set with rat adipocytes (setting [1]) was determined as 3.3 nM.
As for `COC[C@H]1C[C@@H](n2cnc3c(N[C@H]4CCN(c5ccc(Br)cn5)C4)ncnc32)[C@H](O)[C@@H]1O` [Example 52, (1R,2S,3R,5R)-3-[6-[1-(5-bromopyridin-2-yl)pyrrolidin-3(S)-ylamino]-purin-9-yl]-5-methoxymethylcyclopentane-1,2-diol], the melting point was 110 to 111 °C. In addition, the EC50 in the data set with rat adipocytes (setting [1]) turned out to be 17 nM.
For the compound `OC[C@H]1C[C@@H](n2cnc3c(N[C@H]4CCN(c5ccc(Cl)nn5)C4)ncnc32)[C@H](O)[C@@H]1O` [Example 47, (1R,2S,3R,5R)-3-[6-[1-(6-chloropyridazin-3-yl)pyrrolidin-3(S)-ylamino]-purin-9-yl]-5-hydroxymethylcyclopentane-1,2-diol], in the data set with rat adipocytes (setting [1]), the EC50 came to 129 nM.
Compound `COC[C@H]1C[C@@H](n2cnc3c(N[C@H]4CCN(c5ccc(Cl)nn5)C4)ncnc32)[C@H](O)[C@@H]1O` [Example 51, (1R,2S,3R,5R)-3-[6-[1-(6-chloropyridazin-3-yl)pyrrolidin-3(S)-ylamino]-purin-9-yl]-5-methoxymethylcyclopentane-1,2-diol] yielded a melting point of 122 to 124 °C. In addition, the EC50 with rat adipocytes (setting [1]) stood at 18.6 nM.
With `OC[C@H]1C[C@@H](n2cnc3c(N[C@H]4CCN(c5ccc6cc(Br)ccc6n5)C4)ncnc32)[C@H](O)[C@@H]1O` [Example 42, (1R,2S,3R,5R)-3-[6-[1-(6-bromoquinolin-2-yl)pyrrolidin-3(S)-ylamino]-purin-9-yl]-5-hydroxymethylcyclopentane-1,2-diol], in the data set with rat adipocytes (setting [1]), the EC50 was determined as 30 nM.
For `CC(C)OC[C@H]1C[C@@H](n2cnc3c(N[C@H]4CCN(c5cc(C(F)(F)F)ccn5)C4)ncnc32)[C@H](O)[C@@H]1O` [Example 50, (1R,2S,3R,5R)-5-isopropoxymethyl-3-[6-[1-(4-trifluoromethylpyridin2-yl)pyrrolidin-3(S)-ylamino]-purin-9-yl]cyclopentane-1,2-diol], the EC50 with rat adipocytes (setting [1]) was determined as 365 nM.
On the same count and under the same terms, the value for `O=[N+]([O-])c1ccc(N2CC[C@H](Nc3ncnc4c3ncn4[C@@H]3C[C@H](CO)[C@@H](O)[C@H]3O)C2)cc1` [Example 37, (1R,2S,3R,5R)-5-hydroxymethyl-3-[6-[1-(4-nitrophenyl)-pyrrolidin-3(S)-ylamino]-purin-9-yl]cyclopentane-1,2-diol] was 2.8 nM.
With `COC[C@H]1C[C@@H](n2cnc3c(N[C@H]4CCN(c5ccc(Cl)cn5)C4)ncnc32)[C@H](O)[C@@H]1O` [Example 53, (1R,2S,3R,5R)-3-[6-[1-(5-chlorpyridin-2-yl)pyrrolidin-3(S)-ylamino]-purin-9-yl]-5-methoxymethylcyclopentane-1,2-diol], in the data set with rat adipocytes, the EC50 is 18.6 nM.
Turning to `OC[C@H]1O[C@@H](n2cnc3c(N[C@H]4CCN(c5cc(Cl)ncn5)C4)ncnc32)[C@H](O)[C@@H]1O` [Example 21, (2R,3R,4S,5R)-5-hydroxymethyl-2-[6-[1-(6-chloropyrimidin-4-yl)pyrrolidin-3(S)-ylamino]-purin-9-yl]-tetrahydrofuran-3,4-diol], the EC50 in the data set on rat adipocytes (setting [1]) was 2.43 nM.
As for `OC[C@H]1C[C@@H](n2cnc3c(N[C@H]4CCN(c5cc(C(F)(F)F)c(C(F)(F)F)cn5)C4)ncnc32)[C@H](O)[C@@H]1O` [Example 38, (1R,2S,3R,5R)-3-[6-[1-(4,5-bistrifluorpyridin-2-yl)pyrrolidin-3(S)-ylamino]-purin-9-yl]-5-hydroxymethylcyclopentane-1,2-diol], in the data set on rat adipocytes, the EC50 was found to be 114 nM.
